{"source": "ChEMBL document CHEMBL1201862", "about": "“PubChem BioAssay data set” (2004)", "key": {"[1]": {"molecular_target": "Eukaryotic translation initiation factor 4E (Mus musculus, UniProt P63073)", "sequence (P63073 whole entry)": "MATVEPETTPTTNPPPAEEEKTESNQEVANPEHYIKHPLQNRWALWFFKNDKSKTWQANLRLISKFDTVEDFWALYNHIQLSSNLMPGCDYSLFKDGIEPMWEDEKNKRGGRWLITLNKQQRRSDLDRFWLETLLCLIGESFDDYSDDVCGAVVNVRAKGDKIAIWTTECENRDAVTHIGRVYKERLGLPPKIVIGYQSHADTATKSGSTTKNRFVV", "assay": "eIF4E–eIF4G protein interaction inhibitors, dose response, biochemical, TR-FRET (AID 855);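 further: potency for disrupting eIF4E binding to eIF4GI seen as loss of FRET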", "format": "functional"}, "[2]": {"molecular_target": "T1, G-protein coupled receptor 55 (Homo sapiens, UniProt Q9Y2T6)", "T1 sequence (Q9Y2T6 whole entry)": "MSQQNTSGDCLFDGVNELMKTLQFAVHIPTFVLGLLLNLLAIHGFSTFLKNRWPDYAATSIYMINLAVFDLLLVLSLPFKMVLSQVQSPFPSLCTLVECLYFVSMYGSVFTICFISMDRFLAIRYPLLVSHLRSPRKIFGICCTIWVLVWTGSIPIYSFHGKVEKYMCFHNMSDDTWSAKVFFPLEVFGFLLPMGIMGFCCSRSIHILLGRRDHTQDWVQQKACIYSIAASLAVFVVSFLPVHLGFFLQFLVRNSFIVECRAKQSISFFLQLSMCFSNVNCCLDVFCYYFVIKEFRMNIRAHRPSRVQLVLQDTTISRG", "assay": "GPR55 agonists via beta-arrestin recruitment, primary screen, imaging, U2OS cells, beta-arrestin-GFP redistribution (AID 1961)", "format": "functional"}, "[3]": {"molecular_target": "T2, Tyrosine-protein phosphatase non-receptor type 22 (Homo sapiens, UniProt Q9Y2R2)", "T2 sequence (Q9Y2R2 whole entry)": "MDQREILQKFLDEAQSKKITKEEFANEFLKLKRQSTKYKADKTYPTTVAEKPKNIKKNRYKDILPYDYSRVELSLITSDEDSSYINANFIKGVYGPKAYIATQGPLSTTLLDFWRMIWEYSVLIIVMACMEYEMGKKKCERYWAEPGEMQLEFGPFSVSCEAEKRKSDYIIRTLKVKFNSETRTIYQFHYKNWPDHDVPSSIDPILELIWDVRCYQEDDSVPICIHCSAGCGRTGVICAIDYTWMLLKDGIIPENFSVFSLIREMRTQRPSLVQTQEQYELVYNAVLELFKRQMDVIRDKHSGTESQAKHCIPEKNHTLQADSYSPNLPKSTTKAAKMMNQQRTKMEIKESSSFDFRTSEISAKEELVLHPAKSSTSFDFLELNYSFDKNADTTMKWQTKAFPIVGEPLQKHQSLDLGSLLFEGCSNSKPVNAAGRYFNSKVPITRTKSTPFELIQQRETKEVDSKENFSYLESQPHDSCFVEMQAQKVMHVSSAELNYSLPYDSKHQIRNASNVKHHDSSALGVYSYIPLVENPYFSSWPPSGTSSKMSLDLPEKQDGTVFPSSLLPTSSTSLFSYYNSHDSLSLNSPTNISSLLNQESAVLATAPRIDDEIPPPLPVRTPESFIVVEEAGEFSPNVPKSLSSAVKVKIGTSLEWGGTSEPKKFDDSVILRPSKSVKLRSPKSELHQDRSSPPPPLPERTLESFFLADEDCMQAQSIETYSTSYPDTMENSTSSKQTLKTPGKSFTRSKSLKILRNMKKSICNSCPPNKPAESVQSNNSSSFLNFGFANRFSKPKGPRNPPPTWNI", "assay": "SAR LYP1 Fluorescent Assay using pCAP substrate for In Vitro dose response studies - Set 2. [Related pubchem assays (depositor defined):AID1779, AID1784, AID2135, AID449727]", "format": "functional"}, "[4]": {"molecular_target": "Tyrosine-protein phosphatase non-receptor type 12 (Homo sapiens, UniProt Q05209)", "sequence (Q05209 whole entry)": "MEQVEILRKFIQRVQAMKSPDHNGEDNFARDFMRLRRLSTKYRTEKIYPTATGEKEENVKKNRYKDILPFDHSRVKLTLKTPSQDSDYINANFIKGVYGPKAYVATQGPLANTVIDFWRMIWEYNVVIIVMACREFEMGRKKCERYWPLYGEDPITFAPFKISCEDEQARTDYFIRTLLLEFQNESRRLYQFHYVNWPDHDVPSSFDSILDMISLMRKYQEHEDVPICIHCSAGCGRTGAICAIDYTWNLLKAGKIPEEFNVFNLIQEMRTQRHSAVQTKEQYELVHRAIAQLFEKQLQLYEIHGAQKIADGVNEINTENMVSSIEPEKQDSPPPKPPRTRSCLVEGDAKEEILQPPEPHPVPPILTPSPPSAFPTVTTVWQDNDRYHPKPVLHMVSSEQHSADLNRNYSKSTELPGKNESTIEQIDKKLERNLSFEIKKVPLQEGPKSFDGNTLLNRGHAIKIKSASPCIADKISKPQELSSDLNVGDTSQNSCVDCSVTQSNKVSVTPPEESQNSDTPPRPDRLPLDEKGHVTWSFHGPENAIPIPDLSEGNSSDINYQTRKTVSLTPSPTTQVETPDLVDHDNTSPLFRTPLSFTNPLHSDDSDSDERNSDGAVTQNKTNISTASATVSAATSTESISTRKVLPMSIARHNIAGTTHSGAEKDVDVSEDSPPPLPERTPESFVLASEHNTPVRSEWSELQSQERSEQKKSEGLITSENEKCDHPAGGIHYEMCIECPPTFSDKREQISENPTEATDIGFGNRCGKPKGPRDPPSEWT", "assay": "SAR Selectivity Analysis of small molecule inhibitors of PEST using pCAP in a fluorescence assay. [Related pubchem assays (depositor defined):AID1779, AID1784, AID2135]", "format": "functional"}, "[5]": {"molecular_target": "T2, Tyrosine-protein phosphatase non-receptor type 22", "assay": "SAR LYP1 Fluorescent Assay using OMFP substrate for In Vitro dose response studies - Set 3. [Related pubchem assays (depositor defined):AID1779, AID1784, AID2140, AID2686]", "format": "functional"}, "[6]": {"molecular_target": "T3, Tyrosine-protein phosphatase non-receptor type 7 (Homo sapiens, UniProt P35236)", "T3 sequence (P35236 whole entry)": "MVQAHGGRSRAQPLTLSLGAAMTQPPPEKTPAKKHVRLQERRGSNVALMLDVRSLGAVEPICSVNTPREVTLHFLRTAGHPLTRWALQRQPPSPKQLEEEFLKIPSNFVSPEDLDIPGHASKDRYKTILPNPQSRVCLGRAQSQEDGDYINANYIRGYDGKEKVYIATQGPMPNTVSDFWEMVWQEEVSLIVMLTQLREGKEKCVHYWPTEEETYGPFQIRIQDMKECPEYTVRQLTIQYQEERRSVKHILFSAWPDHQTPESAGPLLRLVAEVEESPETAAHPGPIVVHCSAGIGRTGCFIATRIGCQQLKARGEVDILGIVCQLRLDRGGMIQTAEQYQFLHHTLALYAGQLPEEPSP", "assay": "HePTP (PTPN7) phosphatase inhibitor potency, SAR follow-up, biochemical, set 2 (AID 449736)", "format": "functional"}, "[7]": {"molecular_target": "T2, Tyrosine-protein phosphatase non-receptor type 22", "assay": "LYP (PTPN22) phosphatase inhibitor potency, SAR follow-up, biochemical, pCAP fluorogenic substrate, fluorescence, set 3 (AID 449727)", "format": "functional"}, "[8]": {"molecular_target": "T2, Tyrosine-protein phosphatase non-receptor type 22", "assay": "SAR LYP1 Fluorescent Assay using OMFP substrate for In Vitro dose response studies - Set 2. [Related pubchem assays (depositor defined):AID1779, AID1784, AID2140, AID449726, AID488869]", "format": "functional"}, "[9]": {"molecular_target": "T4, Carboxy-terminal domain RNA polymerase II polypeptide A small phosphatase 1 (Homo sapiens, UniProt Q9GZU7)", "T4 sequence (Q9GZU7 whole entry)": "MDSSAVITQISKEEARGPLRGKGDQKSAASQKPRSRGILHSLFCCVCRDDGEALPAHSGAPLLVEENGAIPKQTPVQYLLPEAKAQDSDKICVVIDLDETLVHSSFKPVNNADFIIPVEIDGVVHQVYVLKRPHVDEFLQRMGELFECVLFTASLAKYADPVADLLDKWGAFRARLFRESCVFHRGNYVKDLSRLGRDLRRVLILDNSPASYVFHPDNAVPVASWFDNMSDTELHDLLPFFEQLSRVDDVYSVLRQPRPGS", "assay": "inhibitors of CTDSP1, concentration-response testing, biochemical assay, absorbance-based, actives from ultra-high-throughput screening (AID 540297)", "format": "functional"}, "[10]": {"assay": "inhibitors of intracellular T. cruzi replication, confirmation, NIH3T3 host cells, beta-gal luminescence (AID 2044);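 further: luminescent beta-galactosidase reporter signal from transgenic T. cruzi replicating inside host cells; inhibitors lower the luminescence signal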", "format": "functional, cell-based"}, "[11]": {"assay": "cytotoxicity toward NIH3T3 fibroblasts, dose response, counter-screen, cell-based, ATP luminescence, mouse fibroblasts (AID 2010);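 further: cells exposed to compound for about 90 hours before reading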", "format": "functional"}, "[12]": {"assay": "THP-1 cell cytotoxicity, dose response, cytotoxicity control for non-replicating M. tuberculosis project (AID 489025)", "format": "functional"}, "[13]": {"assay": "HepG2 cell cytotoxicity, dose response, cytotoxicity control for non-replicating M. tuberculosis project (AID 489018)", "format": "functional", "conditions": "Mycobacterium tuberculosis"}, "[14]": {"assay": "Vero E6 cell cytotoxicity, dose response, cytotoxicity control for non-replicating M. tuberculosis project, secondary assay (AID 492998)", "format": "functional, VeroE6", "conditions": "Vero C1008"}, "[15]": {"assay": "cells", "format": "functional"}, "[16]": {"system": "Vero", "assay": "cells", "format": "functional", "conditions": "Chlorocebus sabaeus"}, "[17]": {"assay": "A Cell Based Secondary Assay To Explore Cytotoxicity of Compounds that Sensitize Mycobacterium Tuberculosis to Beta-Lactam Antibiotics.", "format": "functional"}, "[18]": {"molecular_target": "G-protein coupled receptor 35 (Homo sapiens, UniProt Q9HC97)", "sequence (Q9HC97 whole entry)": "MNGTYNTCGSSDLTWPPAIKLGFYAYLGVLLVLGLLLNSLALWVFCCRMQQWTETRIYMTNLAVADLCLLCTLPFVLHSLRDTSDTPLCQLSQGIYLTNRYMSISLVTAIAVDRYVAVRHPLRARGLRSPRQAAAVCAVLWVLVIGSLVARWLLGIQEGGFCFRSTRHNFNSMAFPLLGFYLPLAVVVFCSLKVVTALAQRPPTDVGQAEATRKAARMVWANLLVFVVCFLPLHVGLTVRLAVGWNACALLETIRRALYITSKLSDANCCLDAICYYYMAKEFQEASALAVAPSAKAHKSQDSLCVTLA", "assay": "SAR analysis of Antagonists of the GPR35 Receptor using an Image-Based Assay - Set 5. [Related pubchem assays (depositor defined):AID2058, AID2079]", "format": "functional"}, "[19]": {"molecular_target": "T1, G-protein coupled receptor 55", "assay": "SAR Analysis of Selective Antagonists of GPR55 using an Image-Based Assay - Set 3. [Related pubchem assays (depositor defined):AID2058, AID2079]", "format": "functional"}, "[20]": {"system": "J774.A1", "assay": "Confirmation of image-based Screening Assay for Inhibitors of Phagocytosis. [Related pubchem assays (depositor defined):AID1029, AID1643]", "format": "functional, cell-based", "conditions": "Mus musculus"}}, "note": "Active and inactive are the calls of the source.", "data": [{"smiles": "CC(=O)Nc1c(-c2ccccc2)nc2ncccn12", "values": [{"measurement": "IC50", "setting": "[1]", "value": "> 64 µM (inactive)"}]}, {"smiles": "O=C(CSc1nc2ccccc2s1)N1c2ccccc2Sc2ccccc21", "values": [{"measurement": "EC50", "setting": "[2]", "value": "12.7 µM (inactive)"}]}, {"smiles": "N#C/C(=C\\c1ccc(OCc2ccc(Br)cc2)cc1)C(=O)Nc1cccc(C(=O)O)c1", "values": [{"measurement": "IC50", "setting": "[3]", "value": "3.5 µM (active)"}, {"measurement": "IC50", "setting": "[4]", "value": "0.714 µM (active)"}, {"measurement": "IC50", "setting": "[5]", "value": "0.925 µM (active)"}, {"measurement": "IC50", "setting": "[6]", "value": "0.343 µM (active)"}, {"measurement": "IC50", "setting": "[7]", "value": "3.37 µM (active)"}, {"measurement": "IC50", "setting": "[8]", "value": "1.94 µM (active)"}, {"measurement": "IC50", "setting": "[9]", "value": "1.83 µM (active)"}]}, {"smiles": "O=C(Nc1nc2ccccc2n1CCOc1ccc(Cl)cc1)c1ccco1", "values": [{"measurement": "EC50", "setting": "[10]", "value": "2.02 µM (active)"}, {"measurement": "EC50", "setting": "[11]", "value": "8.97 µM (active)"}, {"measurement": "CC50", "setting": "[12]", "value": "34.4 µM (active)"}, {"measurement": "CC50", "setting": "[13]", "value": "> 20 µM (active)"}, {"measurement": "CC50", "setting": "[14]", "value": "9.25 µM (active)"}, {"measurement": "IC50", "setting": "[15]", "value": "9.2 µM (active)"}, {"measurement": "CC50", "setting": "[16]", "value": "14 µM (active)"}]}, {"smiles": "COC(=O)c1cnn(-c2ccccc2)c1/C=N/NC(=S)Nc1ccc(Cl)cc1", "values": [{"measurement": "CC50", "setting": "[17]", "value": "> 40 µM (active)"}, {"measurement": "IC50", "setting": "[18]", "value": "0.319 µM (active)"}, {"measurement": "IC50", "setting": "[19]", "value": "> 32 µM (inactive)"}]}, {"smiles": "COc1ccccc1-c1nnc2sc(-c3cc4ccccc4o3)nn12", "values": [{"measurement": "IC50", "setting": "[20]", "value": "> 25 µM (inactive)"}]}]}
